Data as given in ChEMBL document CHEMBL4392878, “Guaiane-Type Sesquiterpenoids from the Roots of Daphne genkwa and Evaluation of Their Neuroprotective Effects” (2019).

Key:
Type in all cases: functional
SH-SY5Y [1] = assay: Neuroprotective activity in human SH-SY5Y cells assessed as reduction in H2O2-induced cell damage by measuring cell viability level at 12.5 uM by MTT assay (reference value: 67.95%)
SH-SY5Y [2] = assay: Neuroprotective activity in human SH-SY5Y cells assessed as reduction in H2O2-induced apoptosis by measuring necrotic cells level at 12.5 uM by annexin V-FITC and propidium iodide staining based flow cytometry (reference value: 6.69%); design: scale not given: the % may be the effect or the level left
SH-SY5Y [3] = assay: Neuroprotective activity in human SH-SY5Y cells assessed as reduction in H2O2-induced apoptosis by measuring viable cells level at 12.5 uM by annexin V-FITC and propidium iodide staining based flow cytometry (reference value: 76.7%)
SH-SY5Y [4] = assay: Neuroprotective activity in human SH-SY5Y cells assessed as reduction in H2O2-induced apoptosis by measuring early apoptotic cells level at 12.5 uM by annexin V-FITC and propidium iodide staining based flow cytometry (reference value: 11.3%); design: scale not given: the % may be the effect or the level left
SH-SY5Y [5] = assay: Neuroprotective activity in human SH-SY5Y cells assessed as reduction in H2O2-induced apoptosis by measuring late apoptotic cells level at 12.5 uM by annexin V-FITC and propidium iodide staining based flow cytometry (reference value: 5.26%); design: scale not given: the % may be the effect or the level left
SH-SY5Y [6] = assay: Neuroprotective activity in human SH-SY5Y cells assessed as reduction in H2O2-induced cell damage by measuring cell viability level at 50 uM by MTT assay (reference value: 67.95%)

| SMILES | Activity (SH-SY5Y [1]) [%] | Activity (SH-SY5Y [2]) [%] | Activity (SH-SY5Y [3]) [%] | Activity (SH-SY5Y [4]) [%] | Activity (SH-SY5Y [5]) [%] | Activity (SH-SY5Y [6]) [%] |
| --- | --- | --- | --- | --- | --- | --- |
| CC1=C[C@@]2(O)OC(=O)C(C)=C2C[C@H]2[C@@H](C)CC[C@@]12O | 75.64 | 5.37 | 87.7 | 4.25 | 2.7 |  |
| CC1=C(C[C@@H]2/C(=C(/C)CO)CC[C@@H]2C)C(=O)OC1 | 79.94 | 12.1 | 79.2 | 5.41 | 3.29 |  |
| CC1=C2CC[C@H](C)[C@@H]2C[C@H]2C(=O)[C@@H]1OC[C@@]2(O)CO | 79.34 | 5.41 | 87.7 | 4.19 | 2.67 |  |
| Cc1c(C)c2c(c(C)c1O)CCC(C)(C(=O)O)O2 (stereo unspecified) [TROLOX] |  |  |  |  |  | 78.65 |
